# “Also recorded” adds a separate entry of the source.
# Legend:
# TIGR gene = test: Induction of the TIGR gene by stress stimulants; format: cell-based
# [1] = IOP response to topical dexamethasone eye drops, Armaly criteria; format: in vivo, human; conditions: topical dexamethasone eye drops (0.1%) four times a day for four weeks; one line per subject (subjects 1-7); pre- vs post-treatment IOP
# Experimental: Subjects are given standard topical dexamethasone eye drops (0.1%) four times a day, for four weeks. Pre-treatment and post-treatment IOP readings are taken and patients are classified as having high (>16 mmHg), intermediate (6-16 mmHg) or low (<6 mmHg) IOP responses under the “Armaly” criteria. DNA samples are obtained from four subjects having high or intermediate IOP changes. Samples from several non-responder patients were also taken. The DNA samples were analyzed for the presence of the TIGRmt11 variant sequence, as discussed above.
# HTM cells = test: TIGR 5′ region/promoter AP reporter activity in HTM cells; format: cell-based, human; conditions: attached reporter gene
# Experimental: The 283 base 5′ fragment of the TIGR 5′ region (SEQ ID NO: 37) is amplified from genomic DNA of a normal human subject as discusssed in Example 3. The DNA is cloned into a pSEAP vector (Clontech, Calif.) so that transcription was under the control of the TIGR sequences. More specifically, pSEAP2-enhancer vector is digested with Srfl to produce a blunt end. The 283 bp fragment is blunt end ligated to the vector using T4 ligase for 2 hours. The vector is transfected into DH5 cells to establish a plasmid clone, TMRE-1/pSEAP. PCR sequencing is used to verify the clone sequence as correct. Similarly, the equivalent genomic fragment amplified from a steroid responder sample, identified as mutant TIGR.mt11, is cloned in pSEAP2-enhancer and called clone TIGR.mt11/pSEAP.
# HTM cells, Cos cells (COS-7), and HeLa cells (HeLa 229) are seeded at 10^6 cells per well and incubated with 1 ug of the plasmid DNA to transfect using Lipofectin reagent (GIBCO, Life Technologies, Md.). Some samples of cells were also treated with dexamethasone (DEX). Then, 24, 48, and 72 hours after transfection, AP activity was measured. Cells are collected using a buffer containing L-homoarginine and the chemiluminescent substrate CSPD and a chemiluminescent enhancer added to the samples. The expression levels are then recorded using a luminometer or by brief exposure to X-ray film. […]
Molecule,induction of TIGR gene (TIGR gene),further results
OO [H2O2],induced,
C[C@@H]1C[C@H]2[C@@H]3CCC4=CC(=O)C=C[C@]4(C)[C@@]3(F)[C@@H](O)C[C@]2(C)[C@@]1(O)C(=O)CO [dexamethasone],,CS-IOP Response [1]: Low (low (<6 mmHg)); also recorded: Intermediate (intermediate (6-16 mmHg)); also recorded: High (high (>16 mmHg))
"CCCCCCCCCCCCCC(=O)O[C@@H]1[C@@H](C)[C@@]2(O)[C@@H](C=C(CO)C[C@]3(O)C(=O)C(C)=C[C@@H]23)[C@H]2C(C)(C)[C@]12OC(C)=O [TPA, 12-O-tetradecanolyphorbol-13-acetate]",induced,
"SEQ ID NO: 37: 283 bp region from 5340 to 5044 of SEQ ID NO: 3, TIGR 5′ regulatory region (nucleic acid, listed as Homo sapiens) DNA: AACTATTATTGGGGTATGGGTGCATAAATTGGGATGTTCTTTTTAAAAAGAAACTCCAAACAGACTTCTGGAAGGTTATTTTCTAAGAATCTTGCTGGCAGCGTGAAGGCAACCCCCCTGTGCACAGCCCCACCCAGCCTCACGTGGCCACCTCTGTCTTCCCCCATGAAGGGCTGGCTCCCCAGTATATATAAACCTCTCTGGAGCTCGGGCATGAGCCAGCAAGGCCACCCATCCAGGCACCTCTCAGCACAGCAGAGCTTTCCAGAGGAAGCCTCACCAA",,"expression of AP activity, HTM cells compared with HeLa or Cos cells (HTM cells): much higher"

# Reference: patent publication US6475724B1, “Nucleic acids, kits, and methods for the diagnosis, prognosis and treatment of glaucoma and related disorders” (The Regents of the University of California, priority 1997, dated 2002)
